Measured values reported in patent publication US20250360214A1, “NON-TOXIC PHOTOSENSITIZER COMPOSITION AND TWO-COMPONENT TYPE PHOTOSENSITIZER COMPOSITION COMPRISING THE SAME” (priority 2024, published 2025).
Where a name gives a salt, the structure may show the parent alone.

Tests used:
[1] = system: RAW264.7; assay: Cytotoxicity test (MTT assay) of solvent components PEG, DMSO and HCl; assay type: cell-based; settings: RAW264.7, MTT assay, FIG. 1
[2] = background statement; cited from earlier work

Q: For `Cl` [HCl, hydrochloric acid], which “concentration at which no toxicity was observed” value [1] is on record?
A: The value was at most 10 mN.

Q: Which “concentration at which no toxicity was observed” value [1] does the source give for `C[S+](C)[O-]` [DMSO, dimethylsulfoxide] here?
A: The value was at most 2 vol %.

Q: Which “concentration at which no toxicity was observed” value [1] does the source give for polyethylene glycol [PEG] here?
A: Its value is at most 3 vol %.

Q: For “3-[(3, 5-dimethyl-1H-pyrazole-4-yl)methyl]-3-devinylpyropheophorbide-a methyl ester [MPP100]”, which water solubility [2] is on record?
A: Its water solubility is “extremely low water solubility”.
